Measurements taken from paper PMC11206029, “Identification and Characterization of Cannabichromene’s Major Metabolite Following Incubation with Human Liver Microsomes” (Metabolites, 2024).
Like-named read-outs stand apart in the source and are kept apart here.

Key:
[1] = target: human recombinant CB1R (Homo sapiens, UniProt P21554); experiment: biochemical; format: binding
[2] = target: human recombinant CB2R (Homo sapiens, UniProt P34972); experiment: Competitive radioligand binding assay, displacement of [^3H]CP 55,940; details: for Hill Slope: CB2R, means ± S.E.M. of four to ten experiments
human recombinant CB2R, sequence (P34972 whole entry): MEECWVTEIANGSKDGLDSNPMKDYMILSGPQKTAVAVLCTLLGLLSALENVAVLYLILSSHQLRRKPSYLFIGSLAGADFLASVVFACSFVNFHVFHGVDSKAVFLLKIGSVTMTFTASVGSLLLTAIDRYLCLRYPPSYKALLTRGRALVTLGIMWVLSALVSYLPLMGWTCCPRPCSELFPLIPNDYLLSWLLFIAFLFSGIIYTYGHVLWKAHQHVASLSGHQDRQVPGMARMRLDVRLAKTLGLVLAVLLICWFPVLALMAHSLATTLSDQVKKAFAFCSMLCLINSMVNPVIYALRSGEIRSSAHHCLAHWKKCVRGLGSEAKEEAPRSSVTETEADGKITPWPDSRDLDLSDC

[3] = tested on: microglia; set-up: method as in PMID 38477310; details: microglia following lipopolysaccharide challenge; cited from earlier work
[4] = Incubation of CBC with pooled human liver microsomes, metabolite identification; format: in vitro ADME
Protocol: To maximize the yield of CBC metabolites, parameters including incubation time, HLM protein concentration, and CBC concentration were optimized, and representative extracted ion chromatograms are available in the Supplementary Materials (Section S1.2). The parameters resulting in the highest yield of metabolites were determined to be 0.5 mg/mL HLM, 50 µg/mL CBC, and a 40 min incubation time. Prior to adding the drug, the NADPH-generating system was incubated on a shaker set to 150 rpm at a temperature of 37 ± 2 °C for 10 min (C24 Incubator Shaker, New Brunswick Scientific, Edison, NJ, USA). […]
The HPLC components for the semi-preparative isolation of the major CBC metabolite were as follows: G1322A degasser, G1312A binary pump, G1329B 1260 ALS, G1315B DAD, G1364B fraction collector (all Agilent Technologies, Santa Clara, CA, USA), and an external column compartment ThermaSphere (Phenomenex, Torrance, CA, USA). […] UV absorbance was monitored at 210 nm and 231 nm. […] Isolated metabolites and controls were analyzed utilizing both LC-MS/MS and GC-MS/MS as described below. […]
Samples were derivatized and analyzed using GC-MS/MS based on the previous literature. […] Samples were cooled, transferred to autosampler vials and immediately analyzed via GC-MS/MS. […]

[5] = set-up: method as in PMID 1806943; details: hamster-derived liver microsomes; cited from earlier work
[6] = set-up: method as in PMID 1806943; details: gerbil-derived liver microsomes; cited from earlier work
[7] = set-up: method as in PMID 1806943; details: cat-derived liver microsomes; cited from earlier work
[8] = set-up: method as in PMID 37574147; details: human hepatic biotransformation; cited from earlier work

human recombinant CB1R, sequence (P21554 whole entry): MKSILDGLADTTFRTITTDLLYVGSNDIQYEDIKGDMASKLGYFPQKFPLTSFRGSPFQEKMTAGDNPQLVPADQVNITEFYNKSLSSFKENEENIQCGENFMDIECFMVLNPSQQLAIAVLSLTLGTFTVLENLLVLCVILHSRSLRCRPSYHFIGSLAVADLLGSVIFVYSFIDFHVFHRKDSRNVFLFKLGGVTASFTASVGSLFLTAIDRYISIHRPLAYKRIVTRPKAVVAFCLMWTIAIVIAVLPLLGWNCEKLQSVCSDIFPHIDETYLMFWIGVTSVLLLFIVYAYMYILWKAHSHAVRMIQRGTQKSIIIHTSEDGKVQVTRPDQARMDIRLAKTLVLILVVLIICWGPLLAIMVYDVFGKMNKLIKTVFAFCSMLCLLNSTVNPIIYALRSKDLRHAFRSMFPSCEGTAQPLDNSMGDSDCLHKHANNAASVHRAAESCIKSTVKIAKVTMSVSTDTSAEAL

CCCCCc1cc2c3c(c1)OC1(C)CCC(C3C1O)C(C)(C)O2 (stereo not drawn) [2′-hydroxycannabicitran]
Ki [1]: > 10 µM
Ki [2]: > 10 µM

CCCCCc1cc(O)c2c(c1)OC(C)(CCC(O)C(C)(C)O)C=C2 (stereo not drawn) [6′, 7′-dihydroxy-CBC]
Inflammatory phenotype by nitric oxide production [3]: reduction in nitric oxide production

CCCCCc1cc(O)c2c(c1)OC(C)(CC/C=C(\C)CO)C=C2 (stereo not drawn) [8′-hydroxy-CBC]
Inflammatory phenotype by nitric oxide production [3]: pro-inflammatory

CCCCCc1cc(O)c2c(c1)OC(C)(CCC=C(C)C)C=C2 (stereo not drawn) [CBC, Cannabichromene]
Ki [1]: 3.5 ± 1.2 µM
Hill Slope ([1]; CB1R, means ± S.E.M. of four to ten experiments): −0.27 ± 0.51
Ki [2]: 0.301 ± 0.072 µM
Hill Slope [2]: −1.32 ± 0.36
Major metabolite generated by HLMs ([4]; 0.5 mg/mL HLM, 50 µg/mL CBC, 40 min incubation, NADPH-generating system): 2′-hydroxycannabicitran
Formation of carboxylic acid metabolites ([4]; incubation with HLM, optimized conditions): did not observe any carboxylic acid metabolites
Epoxidation across the alkene on the branched aliphatic chain, share of the total amount of metabolites generated [5]: 10%
Epoxidation across the alkene on the branched aliphatic chain, share of the total amount of metabolites generated [6]: 12%
Epoxidation across the alkene on the branched aliphatic chain, share of the total amount of metabolites generated [7]: 42%
Hydroxylation, share of all CBC metabolites produced [8]: 31%
Monoglucuronides, share of all CBC metabolites produced [8]: ~50%

CCCCCc1cc2c3c(c1)OC(C)(C)C1CCC(C)(CC31)O2 (stereo not drawn) [CBT-C, cannabicitran, reference compound]
Ki [1]: > 10 µM
Ki [2]: 4.2 ± 0.41 µM
Hill Slope [2]: −1.15 ± 0.14
